Measurements from patent US4610816A (Schering Corporation, priority 1981, dated 1986).

Tests used:
Male CFl mice = assay: Potentiation of the analgesic effects of (DAla2-Met5)-enkephalinamide (DAEAM), tail-flick test; format: in vivo; details: mouse tail-flick, DAEAM icv, latency 30 min later, dose at which half the test animals displayed analgesia
Text: Male CFl mice (19-23 g) from Charles River Breeding Labs, Mass., are used (N=10/dose or dose combination). Tail-flick testing is done similar to that of Dewey and Harris, Methods in Narcotic Research, Eds., S. Ehrenpreis and A. Neidle, pp. 101-109, Marcel Dekker, Inc., New York, 1975 using a radiant heat noxious stimulus. Following determination of control latencies (typically 2-3 sec), the mice are first injected (sc or po) with either vehicle or drug and after an appropriate interval injected intracerebroventricularly (icv) with either vehicle (10 μl of saline) or DAEAM according to Haley and McCormick, Br., J. Pharmacol., 12,12 (1957). Tail-flick latencies are re-determined 30 min later, as this has previously been determined to be the time of peak analgesia for DAEAM, a cut-off of 10 sec is employed.

enkephalinase A = target: T1, enkephalinase A (Rattus norvegicus, UniProt P07861); assay: Enkephalinase A inhibition, radiometric 3H-Met5-ENK degradation assay with TLC separation; format: biochemical, Sprague-Dawley rats; details: rat brain membrane enzyme, 40 nM 3H-Met5-ENK, 90 min at 37° C.; N.A. = No activity at <10^5 nM
T1 construct: from tissue; host or cells: Sprague-Dawley rat brain minus cerebellum; membrane pellet solubilised in 1% Triton X-100, DEAE Sephacel fraction eluting at 120-200 ml
T1 sequence (P07861 1-750): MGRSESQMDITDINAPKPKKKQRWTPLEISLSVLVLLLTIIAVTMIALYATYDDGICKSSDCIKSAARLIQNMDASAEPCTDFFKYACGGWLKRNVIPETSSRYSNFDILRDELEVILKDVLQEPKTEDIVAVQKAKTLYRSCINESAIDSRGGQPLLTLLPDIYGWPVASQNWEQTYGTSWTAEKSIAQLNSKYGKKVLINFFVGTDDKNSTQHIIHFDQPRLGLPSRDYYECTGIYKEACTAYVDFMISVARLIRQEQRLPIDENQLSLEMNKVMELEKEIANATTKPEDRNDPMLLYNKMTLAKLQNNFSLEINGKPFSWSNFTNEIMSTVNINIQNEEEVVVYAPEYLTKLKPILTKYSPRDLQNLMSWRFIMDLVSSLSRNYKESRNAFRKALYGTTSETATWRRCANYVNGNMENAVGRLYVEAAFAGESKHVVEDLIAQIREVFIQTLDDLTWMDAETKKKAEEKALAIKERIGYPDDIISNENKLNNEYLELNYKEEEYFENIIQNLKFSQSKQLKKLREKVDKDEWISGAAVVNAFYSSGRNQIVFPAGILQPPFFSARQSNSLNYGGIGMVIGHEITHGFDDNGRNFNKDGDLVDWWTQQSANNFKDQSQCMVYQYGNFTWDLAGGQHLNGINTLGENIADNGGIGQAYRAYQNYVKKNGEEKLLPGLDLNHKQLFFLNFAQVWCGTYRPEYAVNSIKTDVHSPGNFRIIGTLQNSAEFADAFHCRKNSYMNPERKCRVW

SMILES | IC50 (enkephalinase A) [nM] | DAEAM Potentiation ED50 (route) (Male CFl mice; po) | DAEAM Potentiation ED50 (route) (Male CFl mice; sc) [mg/k]
CC(C)(C)C(=O)OCOC(=O)CCNC(=O)[C@H](Cc1ccccc1)N[C@@H](Cc1ccccc1)C(=O)OCc1ccccc1 [L] | – | 155 mg/k | –
CC(C)(C)C(=O)OCOC(=O)CCNC(=O)[C@H](Cc1ccccc1)N[C@@H](Cc1ccccc1)C(=O)OCOC(=O)C(C)(C)C [M] | – | 37 mg/k | –
O=C(O)CCNC(=O)[C@H](Cc1ccccc1)N[C@@H](Cc1ccccc1)C(=O)O [K, N-[N-[(L-1-carboxy-2-phenylethyl)]-L-phenylalanyl]-β-alanine] | 15 | – | 17
O=C(CCNC(=O)[C@H](Cc1ccccc1)N[C@@H](Cc1ccccc1)C(=O)O)OCCOc1ccccc1 [P, N-[N-[(L-1-carboxy-2-phenylethyl)]-L-phenylalanyl]-β-alanine, 2-phenoxyethyl ester] | 230 | 30-60 mg/k | –

Now from value to compound, other results behind:

IC50 (enkephalinase A) [nM] | SMILES | DAEAM Potentiation ED50 (route) (Male CFl mice; po) | DAEAM Potentiation ED50 (route) (Male CFl mice; sc) [mg/k]
12 | CC(C)C[C@H](N[C@H](Cc1ccccc1)C(=O)O)C(=O)N[C@@H](Cc1ccccc1)C(=O)O [AG, N-[N-[(D-1-carboxy-2-phenylethyl)]-L-leucyl]-L-phenylalanine] | – | –
4.5 | CC(C)(C)OC(=O)N[C@@H](CNC(=O)[C@H](Cc1ccccc1)N[C@@H](Cc1ccccc1)C(=O)O)C(=O)O [AL, N-[N-(L-1-carboxy-2-phenylethyl)-L-phenylalanyl]-S-2-[N[(1,1-dimethylethoxy)carbonyl]amino]-β-alanine] | – | –
2.5 | O=C(O)CCNC(=O)[C@H](Cc1ccccc1)N[C@@H](Cc1ccc(-c2ccccc2)cc1)C(=O)O [AC, N-[N-[L-1-carboxy-2-(4-phenyl)phenylethyl]-L-phenylalanyl]-β-alanine] | – | –
